The values below come from US20230159532A1, “PARATHYROID HORMONE (PTH) RECEPTOR ANTAGONISTS AND USES THEREOF” (Crinetics Pharmaceuticals, Inc., priority 2021, published 2023).

In the experiment the target is T1, human PTHR1 receptor (Homo sapiens, UniProt Q03431).
T1 construct: purchased Eurofins HTS030M
T1 sequence (Q03431 27-593): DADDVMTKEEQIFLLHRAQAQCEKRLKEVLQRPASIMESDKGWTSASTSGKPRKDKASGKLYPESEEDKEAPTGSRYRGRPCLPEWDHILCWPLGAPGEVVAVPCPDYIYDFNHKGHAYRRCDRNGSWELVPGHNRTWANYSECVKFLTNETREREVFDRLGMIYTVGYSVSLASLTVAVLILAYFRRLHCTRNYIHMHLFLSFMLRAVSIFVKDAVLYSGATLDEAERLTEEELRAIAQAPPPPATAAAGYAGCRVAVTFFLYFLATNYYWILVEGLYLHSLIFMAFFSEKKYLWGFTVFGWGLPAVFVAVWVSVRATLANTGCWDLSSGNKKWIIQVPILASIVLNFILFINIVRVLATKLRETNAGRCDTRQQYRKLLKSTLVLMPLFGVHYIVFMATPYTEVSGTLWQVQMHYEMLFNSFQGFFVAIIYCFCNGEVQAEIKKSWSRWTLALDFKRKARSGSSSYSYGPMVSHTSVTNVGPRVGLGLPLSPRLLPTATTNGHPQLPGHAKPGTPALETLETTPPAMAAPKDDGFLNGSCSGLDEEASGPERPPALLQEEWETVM
As to the kind of experiment: Competitive antagonist binding assay for hPTH-R1 (radioactive competition binding, SPA beads). The settings on record: human PTHR1 membranes, [125I]-[Nle8,18,Tyr34]-PTH(1-34) 0.2 nM, 90 minutes at room temperature; read-out: hPTHR1 Ki. The method, boiled down: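 Human PTHR1 membranes on SPA beads incubated 90 min at room temperature with compound (typically 0-10,000 nM final) and 0.2 nM [125I]-[Nle8,18,Tyr34]-PTH(1-34) in HEPES buffer with MgCl2, CaCl2, BSA, Triton X-100 and protease inhibitors, pH 7.4. Scintillation signal read; Ki values derived.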

In general, Ki refers to a measure of affinity in units of concentration, obtained from inhibition or displacement. Take `Cc1cc(C#N)cc2c1-c1cc(F)cnc1N(C)C(=O)N2c1c(F)cc(NCCNCCO)cc1F` [1-112, 10-[2,6-difluoro-4-({2-[(2-hydroxyethyl)amino]ethyl}amino)phenyl]-4-fluoro-8,15-dimethyl-9-oxo-6,8,10-triazatricyclo[9.4.0.0^2,7]pentadeca-1(11),2(7),3,5,12,14-hexaene-13-carbonitrile]: the inhibition constant (Ki) was under 100 nM.

In the case of `CCN1C(=O)N(c2c(F)cc(NCCNCCO)cc2F)c2cc(C#N)ncc2-c2cc(F)cnc21` [3-12, 8-[2,6-difluoro-4-({2-[(2-hydroxyethyl)amino]ethyl}amino)phenyl]-10-ethyl-14-fluoro-9-oxo-4,8,10,12-tetraazatricyclo[9.4.0.0^2,7]pentadeca-1(11),2(7),3,5,12,14-hexaene-5-carbonitrile], the Ki is under 100 nM.

With `CN1C(=O)N(c2c(F)cc(NCCNC3CCOCC3)cc2F)c2cc(Cl)ccc2-c2cc(Cl)cnc21` [1-35, 4,13-dichloro-10-[2,6-difluoro-4-({2-[(oxan-4-yl)amino]ethyl}amino)phenyl]-8-methyl-6,8,10-triazatricyclo[9.4.0.0^2,7]pentadeca-1(11),2(7),3,5,12,14-hexaen-9-one], the Ki was under 100 nM.

In the case of `CCN1C(=O)N(c2c(F)cc(NCCNCCO)cc2F)c2cc(C#N)cnc2-c2cc(F)cnc21` [3-13, 8-[2,6-difluoro-4-({2-[(2-hydroxyethyl)amino]ethyl}amino)phenyl]-10-ethyl-14-fluoro-9-oxo-3,8,10,12-tetraazatricyclo[9.4.0.0^2,7]pentadeca-1(11),2(7),3,5,12,14-hexaene-5-carbonitrile], the inhibitory constant (Ki) was under 100 nM.

For `CCN1C(=O)N(c2c(F)cc(NCCNC[C@H](C)O)cc2F)c2cc(C#N)ccc2-c2cc(Cl)cnc21` [1-180, 4-chloro-10-{2,6-difluoro-4-[(2-{[(2S)-2-hydroxypropyl]amino}ethyl)amino]phenyl}-8-ethyl-9-oxo-6,8,10-triazatricyclo[9.4.0.0^2,7]pentadeca-1(11),2(7),3,5,12,14-hexaene-13-carbonitrile], the inhibition constant Ki was under 100 nM.

Turning to `CCN1C(=O)N(c2c(F)cc(NCCNCCNC(=O)OC)cc2F)c2cc(C#N)ccc2-c2cc(F)cnc21` [1-216, methyl N-[2-({2-[(4-{13-cyano-8-ethyl-4-fluoro-9-oxo-6,8,10-triazatricyclo[9.4.0.0^2,7]pentadeca-1(11),2(7),3,5,12,14-hexaen-10-yl}-3,5-difluorophenyl)amino]ethyl}amino)ethyl]carbamate], the Ki is under 100 nM.

For the compound `CCN1C(=O)N(c2c(F)cc(NCCNC(CO)CO)cc2F)c2cc(C#N)ccc2-c2cc(Cl)cnc21` [1-157, 4-chloro-10-[4-({2-[(1,3-dihydroxypropan-2-yl)amino]ethyl}amino)-2,6-difluorophenyl]-8-ethyl-9-oxo-6,8,10-triazatricyclo[9.4.0.0^2,7]pentadeca-1(11),2(7),3,5,12,14-hexaene-13-carbonitrile], the inhibition constant Ki is under 100 nM.

`CCN1C(=O)N(c2c(F)cc(NCCNC)cc2F)c2cc(Cl)ccc2-c2cc(C(F)(F)F)cnc21` [1-57, 13-chloro-10-(2,6-difluoro-4-{[2-(methylamino)ethyl]amino}phenyl)-8-ethyl-4-(trifluoromethyl)-6,8,10-triazatricyclo[9.4.0.0^2,7]pentadeca-1(11),2(7),3,5,12,14-hexaen-9-one]: the Ki is under 100 nM.

With `CCN1C(=O)N(c2c(F)cc(NCCNC)cc2F)c2cc(Cl)ccc2-c2cc(Cl)cnc21` [1-8, 4,13-dichloro-10-(2,6-difluoro-4-{[2-(methylamino)ethyl]amino}phenyl)-8-ethyl-6,8,10-triazatricyclo[9.4.0.0^2,7]pentadeca-1(11),2(7),3,5,12,14-hexaen-9-one], the inhibition constant Ki was under 100 nM.

As to `CNCCNc1cc(F)c(N2C(=O)N(C)c3ncc(F)cc3-c3c(C)cc(C#N)cc32)c(F)c1` [1-111, 10-(2,6-difluoro-4-{[2-(methylamino)ethyl]amino}phenyl)-4-fluoro-8,15-dimethyl-9-oxo-6,8,10-triazatricyclo[9.4.0.0^2,7]pentadeca-1(11),2(7),3,5,12,14-hexaene-13-carbonitrile], the Ki is under 100 nM.

Take `C[C@@H](CO)NCCNc1cc(F)c(N2C(=O)N(C)c3ncc(Cl)cc3-c3ccc(C#N)cc32)c(F)c1` [1-205, 4-chloro-10-{2,6-difluoro-4-[(2-{[(2S)-1-hydroxypropan-2-yl]amino}ethyl)amino]phenyl}-8-methyl-9-oxo-6,8,10-triazatricyclo[9.4.0.0^2,7]pentadeca-1(11),2(7),3,5,12,14-hexaene-13-carbonitrile]: the inhibitory constant (Ki) was under 100 nM.

Regarding `CCN1C(=O)N(c2c(F)cc(NCCN[C@@H]3CC[C@@H]3O)cc2F)c2cc(C#N)ccc2-c2cc(Cl)cnc21` [1-177, 4-chloro-10-{2,6-difluoro-4-[(2-{[(1R,2S)-2-hydroxycyclobutyl]amino}ethyl)amino]phenyl}-8-ethyl-9-oxo-6,8,10-triazatricyclo[9.4.0.0^2,7]pentadeca-1(11),2(7),3,5,12,14-hexaene-13-carbonitrile], the inhibition constant Ki is under 100 nM.

Regarding `CCN1C(=O)N(c2c(F)cc(NCCNCCCC(=O)O)cc2F)c2c(ccc(Cl)c2F)-c2cc(Cl)cnc21` [3-11, 4-({2-[(4-{4,13-dichloro-8-ethyl-12-fluoro-9-oxo-6,8,10-triazatricyclo[9.4.0.0^2,7]pentadeca-1(11),2(7),3,5,12,14-hexaen-10-yl}-3,5-difluorophenyl)amino]ethyl}amino)butanoic acid], the inhibition constant (Ki) was under 100 nM.

Turning to `CCN1C(=O)N(c2c(F)cc(NCCNCCNS(C)(=O)=O)cc2F)c2cc(C#N)ccc2-c2cc(Cl)cnc21` [1-150, N-[2-({2-[(4-{4-chloro-13-cyano-8-ethyl-9-oxo-6,8,10-triazatricyclo[9.4.0.0^2,7]pentadeca-1(11),2(7),3,5,12,14-hexaen-10-yl}-3,5-difluorophenyl)amino]ethyl}amino)ethyl]methanesulfonamide], the inhibitory constant (Ki) was under 100 nM.

As to `CCN1C(=O)N(c2c(F)cc(N3CCN[C@@H](CO)C3)cc2F)c2cc(C#N)ccc2-c2cc(Cl)cnc21` [1-153, 4-chloro-10-{2,6-difluoro-4-[(3R)-3-(hydroxymethyl)piperazin-1-yl]phenyl}-8-ethyl-9-oxo-6,8,10-triazatricyclo[9.4.0.0^2,7]pentadeca-1(11),2(7),3,5,12,14-hexaene-13-carbonitrile], the Ki is under 100 nM.

With `CCN1C(=O)N(c2c(F)cc(NCCNCCO)cc2F)c2cc(C#N)ccc2-c2cc(C)cnc21` [1-208, 10-[2,6-difluoro-4-({2-[(2-hydroxyethyl)amino]ethyl}amino)phenyl]-8-ethyl-4-methyl-9-oxo-6,8,10-triazatricyclo[9.4.0.0^2,7]pentadeca-1(11),2(7),3,5,12,14-hexaene-13-carbonitrile], the inhibitory constant (Ki) was under 100 nM.

Consider `CCN1C(=O)N(c2c(F)cc(NCCNCCNC(C)=O)cc2F)c2cc(C#N)ccc2-c2cc(Cl)cnc21` [1-168, N-[2-({2-[(4-{4-chloro-13-cyano-8-ethyl-9-oxo-6,8,10-triazatricyclo[9.4.0.0^2,7]pentadeca-1(15),2(7),3,5,11,13-hexaen-10-yl}-3,5-difluorophenyl)amino]ethyl}amino)ethyl]acetamide], for which the Ki is under 100 nM.

For the compound `CN1C(=O)N(c2c(F)cc(NCCNCCO)cc2F)c2cc(Cl)ccc2-c2cc(Cl)cnc21` [1-34, 4,13-dichloro-10-[2,6-difluoro-4-({2-[(2-hydroxyethyl)amino]ethyl}amino)phenyl]-8-methyl-6,8,10-triazatricyclo[9.4.0.0^2,7]pentadeca-1(11),2(7),3,5,12,14-hexaen-9-one], the inhibitory constant (Ki) was under 100 nM.

Consider `CCN1C(=O)N(c2c(F)cc(NCCNCCOCCC(=O)O)cc2F)c2cc(C#N)ccc2-c2cc(Cl)cnc21` [1-229, 3-[2-({2-[(4-{4-chloro-13-cyano-8-ethyl-9-oxo-6,8,10-triazatricyclo[9.4.0.0^2,7]pentadeca-1(11),2(7),3,5,12,14-hexaen-10-yl}-3,5-difluorophenyl)amino]ethyl}amino)ethoxy]propanoic acid], for which the Ki was under 100 nM.

Regarding `CCN1C(=O)N(c2c(F)cc(NCCNC)cc2F)c2c(ccc(Cl)c2F)-c2cc(Cl)cnc21` [3-9, 4,13-dichloro-10-(2,6-difluoro-4-{[2-(methylamino)ethyl]amino}phenyl)-8-ethyl-12-fluoro-6,8,10-triazatricyclo[9.4.0.0^2,7]pentadeca-1(11),2(7),3,5,12,14-hexaen-9-one], the Ki was under 100 nM.

`CCN1C(=O)N(c2c(F)cc(NCCNCCO)cc2F)c2cc(Cl)ccc2-c2cc(F)cnc21` [1-17, 13-chloro-10-[2,6-difluoro-4-({2-[(2-hydroxyethyl)amino]ethyl}amino)phenyl]-8-ethyl-4-fluoro-6,8,10-triazatricyclo[9.4.0.0^2,7]pentadeca-1(11),2(7),3,5,12,14-hexaen-9-one]: the Ki was under 100 nM.
